According to patent US20140121178A1, “METHOD AND IMPROVED PHARMACEUTICAL COMPOSITION FOR IMPROVING THE ABSORPTION OF AN ESTER PRODRUG” (ACENDA PHARMA INC., priority 2011, published 2014):
Structures can show the parent of a compound that is named as a salt.

What was measured:
[1] = system: CE from porcine liver; assay: In vitro CE-mediated hydrolysis of olmesartan medoxomil in the presence of ester excipients; format: in vitro ADME; settings: for effect on CE-mediated hydrolysis of olmesartan medoxomil (in words): compared with lecithin, Table 1; for preliminary screen of ester excipients for impeding hydrolysis of olmesartan medoxomil by CE in vitro: preliminary results
Procedure: Various known pharmaceutical ester excipients including triacetin, glyceryl tristearate, triethyl citrate, lecithin, tri-n-butyl citrate, acetyl triethyl citrate, and acetyl tri-n-butyl citrate were respectively tested to determine whether any of them impedes hydrolysis of olmesartan medoxomil by CE in vitro.
Test solutions (a) to (f) were prepared respectively as follows: (a) 10 μM of olmesartan medoxomil dissolved in 10% DMSO (dimethyl sulfoxide)/90% PEG400 (w/w, stability control); (b) 10 μM of olmesartan medoxomil dissolved in 10% DMSO/90% PEG400 (w/w, blank control) (c) 10 μM of olmesartan medoxomil dissolved in 10% DMSO/12% triacetin/78% PEG400 (w/w/w); (d) 10 μM of olmesartan medoxomil dissolved in 10% DMSO/12% triethyl citrate/78% PEG400 (w/w/w); (e) 10 μM of olmesartan medoxomil dissolved in 10% DMSO/12% lecithin/78% PEG400 (w/w/w); and (f) 10 μM of olmesartan medoxomil dissolved in 10% DMSO/6% triacetin/6% triethyl citrate/78% PEG400 (w/w/w/w).
CE from porcine liver (17 units/mg, available from Sigma-Aldrich) was dissolved in simulated intestinal fluid (SIF, pH=6.8) to yield a CE solution (17 units/ml). SIF was prepared by dissolving 0.6805 g of KH2PO4 and 0.0896 g of NaOH in 100 ml of de-ionized water.
Each 70 μl of olmesartan medoxomil solution (i.e., solutions (a)-(f)) was mixed with 70 μl of SIF and thereby forming mixtures (a) to (f). Each of the mixtures (a) to (f) was transferred to one well of a 96-well plate, and 60 μl each of the CE solution was added to respective wells containing mixtures (b) to (f) to initiate the reaction. In addition, sixty (60) μl of SIF without CE was added to mixture (a). This incubation mixture without CE was used as a stability control to determine the chemical stability of olmesartan medoxomil in the incubation mixture. The mixtures were incubated for 20 minutes under the air at 37° C. with constant shaking on a temperature-controlled heating block.
At the end of the 20-minute incubation, 100 μl of ice-cold acetonitrile was added to each well to terminate the reaction. Each mixture was vortexed and centrifuged at 15,000×g for 20 min at room temperature. The supernatants were tested in HPLC/UV analysis, in which the concentration of olmesartan medoxomil in each mixture was measured. Percentages (%) of olmesartan medoxomil remaining in the mixtures were calculated based on the obtained data.

[2] = system: CE from porcine liver; assay: In vitro CE-mediated hydrolysis of clopidogrel in the presence of triacetin, triethyl citrate or both; format: in vitro ADME; settings: Table 2
[3] = Rat oral pharmacokinetics of olmesartan medoxomil with or without triacetin; format: in vivo, rats (Sprague-Dawley); settings: rats, oral administration, plasma LC-MS/MS
Procedure: Water was available ad libitum throughout the experiment. Dosing solutions of olmesartan medoxomil (5 mg/ml) were prepared in a vehicle of DMSO/PEG400 (10/90, v/v) or DMSO/PEG400/triacetin (10/80/10, v/v). […] Each rat received olmesartan medoxomil (5 mg/kg) in DMSO/PEG400 (10/90, v/v) or olmesartan medoxomil (5 mg/kg) in DMSO/PEG400/triacetin (10/80/10, v/v).

[4] = Rat oral pharmacokinetics of capecitabine with or without triethyl citrate/triacetin; format: in vivo, rats; settings: capecitabine in rat plasma, capecitabine 5 mg/kg, triethyl citrate 22.5 mg/kg + triacetin 22.5 mg/kg where given
Procedure: In a rat study similar to the study described above, each rat received capecitabine (5 mg/kg) in DMSO or capecitabine (5 mg/kg) in DMSO/triethyl citrate (22.5 mg/kg)/triacetin (22.5 mg/kg).

[5] = Rat oral pharmacokinetics of capecitabine with or without triethyl citrate; format: in vivo, rats; settings: capecitabine in rat plasma, capecitabine 5 mg/kg, triethyl citrate 45 mg/kg where given
Procedure: Capecitabine is an ester prodrug, which is hydrolyzed mainly by CE2 in the GI track and CE1 in the liver and then converted by two enzymes to its active drug (5-fluorouracil) in the tumor after oral administration of capecitabine to cancer patients. […] Each rat received capecitabine (5 mg/kg) in DMSO or capecitabine (5 mg/kg) in DMSO/triethyl citrate (45 mg/kg).

[6] = Rat oral pharmacokinetics of clopidogrel bisulfate (3 mg/kg) with or without triethyl citrate/triacetin; format: in vivo, rats; settings: Sprague-Dawley, plasma
Procedure: Serial plasma samples were obtained from each rat and concentrations of clopidogrel and clopidogrel acid in the plasma samples were determined by LC-MS/MS.

[7] = in vivo; settings: male, Sprague-Dawley, rat, po, 30 mg/kg
Procedure: Male rats (Sprague-Dawley, 300-400 g) were surgically implanted with jugular-vein cannulas one day prior to dosing and fasted overnight (about 18-20 hours) prior to dosing. Water was available ad libitum throughout the experiment. Dosing solutions of olmesartan medoxomil (5 mg/ml) were prepared in a vehicle of DMSO/PEG400 (10/90, v/v) or DMSO/PEG400/triacetin (10/80/10, v/v). Single oral doses of the olmesartan medoxomil and olmesartan medoxomil/triacetin were each administered separately to a group of 3 male rats by gavage. Each rat received olmesartan medoxomil (5 mg/kg) in DMSO/PEG400 (10/90, v/v) or olmesartan medoxomil (5 mg/kg) in DMSO/PEG400/triacetin (10/80/10, v/v).
Blood samples (0.15 ml/rat) were collected from each rat via the jugular-vein cannula at 0, 0.25, 0.5, 1, 2, 4, 6, 8, and 24 hours after dosing. Plasma was separated from blood cells by centrifugation and frozen at −20° C. until analysis. […] A plasma concentration-time curve was plotted based on the obtained data.

[8] = mean n=3, read-out: AUC0-24 hr of capecitabine

CC(=O)OCC(COC(C)=O)OC(C)=O [triacetin]
effect on CE-mediated hydrolysis of olmesartan medoxomil (in words) [1]: retards CE-mediated hydrolysis of olmesartan medoxomil | preliminary screen of ester excipients for impeding hydrolysis of olmesartan medoxomil by CE in vitro [1]: promising candidates | effect on CE-mediated hydrolysis of clopidogrel (in words) [2]: retard CE-mediated hydrolysis of clopidogrel

CCOC(=O)CC(O)(CC(=O)OCC)C(=O)OCC [triethyl citrate]
effect on CE-mediated hydrolysis of olmesartan medoxomil (in words) [1]: retards CE-mediated hydrolysis of olmesartan medoxomil | preliminary screen of ester excipients for impeding hydrolysis of olmesartan medoxomil by CE in vitro [1]: promising candidates | effect on CE-mediated hydrolysis of clopidogrel (in words) [2]: retard CE-mediated hydrolysis of clopidogrel | effectiveness in impeding CE-mediated hydrolysis of clopidogrel compared with triacetin and lecithin (in words) [2]: more effective in impeding CE-mediated hydrolysis of clopidogrel than triacetin and lecithin

CCCc1nc(C(C)(C)O)c(C(=O)OCc2oc(=O)oc2C)n1Cc1ccc(-c2ccccc2-c2nnn[nH]2)cc1 [Olmesartan Medoxomil, olmesartan medoxomil]
hydrolysis of olmesartan medoxomil to olmesartan after absorption [3]: completely hydrolyzed to olmesartan

CCCCCOC(=O)Nc1nc(=O)n([C@@H]2O[C@H](C)[C@@H](O)[C@H]2O)cc1F [Capecitabine, capecitabine]
Cmax ([4]; mean n=3): 8.9 ng/mL | Tmax ([4]; mean n=3): 0.4 h | AUC(0-t) [4, 8]: 0.015 µg·h/mL | Cmax ([5]; mean n=3): 11.8 ng/mL | Tmax ([5]; mean n=3): 0.8 h | AUC(0-t) [5, 8]: 0.034 µg·h/mL

COC(=O)[C@H](c1ccccc1Cl)N1CCc2sccc2C1 [Clopidogrel Bisulfate, clopidogrel bisulfate]
Cmax [6]: 0.8 ng/mL | Tmax [6]: 2.9 h | AUC(0-t) ([6]; read-out: AUC0-24 hr of clopidogrel): 0.002 µg·h/mL | AUC(0-t) [7]: 0.028 µg·h/mL | Cmax [7]: 7.3 ng/mL | Tmax [7]: 4.1 h
